What was measured:
Hela cells = assay: Western blot of autophagy markers (autophagy flux) in Hela wild-type and TLK2 KO cells; assay type: cell-based; conditions: 6 hours
Description: Hela cells were collected, and were added in an RIPA lysis buffer added with a protease inhibitor and PMSF (50 mM Tris, 150 mM NaCl, 1% Triton X-100, 1% sodium deoxytholate and 0.1% SDS) for lysis on ice for 30 min. Subsequently, ultrasonication was performed on ice under the conditions of 40 w 3 sec on/3 sec off for 1 minute, centrifugation was performed at 12,000 rpm in a centrifugal machine at 4° C. for 15 min, a supernatant was collected, diluted by an SDS sample-loading buffer and stewed at 95° C. for 5 min. […] of a protein sample was loaded, and gel electrophoresis was performed under a constant voltage of 80 V When bromophenol blue reached the bottom, membrane transfer was performed overnight at a constant current of 130 mA to transfer the protein from a gel onto a PVDF membrane. The membrane was blocked with 5% skim milk at room temperature for 1 hour, and was washed with TBST for three times, with 5 min for each time. A primary antibody properly diluted was incubated overnight at 4° C., and washed with TBST for three times, with 5 min for each time. An HRP secondary antibody was diluted in 1:10000, incubated at room temperature for 1 hour, and washed with TBST for three times, with 5 min for each time. Western blot was developed by ECL chemiluminescence.
In TLK2 KO cells, the LC3-II/LC3-I ratio was increased, and a P62 protein level was reduced (FIG. 14). […] The autophagy is a dynamic process, for which a level may be elevated accurately through a process of testing an autophagy flux. By using a drug to activate or block an autophagy pathway, the autophagy flux smoothness could be evaluated.
Raparnycin (Rapa) was used for activating the autophagy, and bafilomycin A1 (Baf A1) was used for inhibiting the autophagy. Cells were treated with Raparnycin (Rapa, 40 nM) and bafilomycin A1 (Baf A1, 100 nM) for 6 hours, respectively. […] This indicated smooth autophagy flux in the TLK2 KO cells.

[1] = system: cell calcium-overload model; assay: Drug screening in a cell calcium-overload model (LDH assay); assay type: cell-based; conditions: screening of micro-molecule library, PMZ as positive control
Excerpt: The culture solution was removed, and the cells were washed with PBS. A fresh culture solution was used (it was recommended to use a low serum culture solution containing 1% serum or a suitable serum-free culture solution), and various culture wells were divided into the following groups: cell-free culture solution wells (background blank control wells), control cell wells not treated with a drug (sample control wells), cell wells used for subsequent lysis, not treated with a drug (maximum sample enzyme activity control wells), and drug-treated cell wells (drug-treated sample wells), and these wells were labeled properly.
Proper drug treatment was provided according to experiment requirements, for example, about 0-10 μL of a specific drug was added for stimulation; different concentrations and different treatment time could be set, and suitable drug solvent was required to be added to the control wells for continued culture as routine against the control. At 1 hour before a predetermined testing time point, the cell culture plate was taken out of a cell incubator, an LDH release reagent provided by a reagent kit was added to the “maximum sample enzyme activity control wells”, and the addition amount was equal to 10% of the volume of the original culture solution. After the addition of the LDH release reagent, the cells were blown repeatedly for several times for uniform mixing, and then were incubated in the cell incubator.
After the predetermined time expired, the cell culture plate was centrifuged with a multi-well plate centrifugal machine at 400 g for 5 min. 120 μL of a supernatant was respectively taken from each well and added to corresponding wells of a new 96-well plate for subsequent sample testing. 60 μL of an LDH test working solution was respectively added to each well. […] Then, absorbance was measured at 490 nm. […] Calculation was performed (the background blank control well absorbance was deducted from the measured absorbance of each group). […]

TLK2 [2] = assay: Purified GST-TLK2 incubated with lysis buffer of ionomycin-treated (calcium-overload) Hela cells: Commassie staining, phos-tag SDS-PAGE, mass spectrometry; assay type: biochemical
Description: TLK2 cDNA was cloned to a PGEX-6P-1 vector containing a GST tag, a recombinant plasmid was expressed into BL21 chemical competent cells for induced expression at 180 rpm at 20° C. for 20 hours under an induction condition of 0.5 mM IPTG. GST-TLK2 was purified according to the standard steps of Beyotime GST tag protein purification kit. Hela cells were treated with 17 μM ionomycin for 3 hours, and when a cell density reached 70%, the cells were collected. Lysis was performed in a lysis buffer (10 mM Tris, 150 mM NaCl, 2 mM EDTA and 0.5% TritonX-100). Centrifugation was performed at 12,000 rmp at 4° C. for 15 min, and a supernatant was collected. 3 μg of a GST-TLK2 purified protein and 200 μg of a cell lysis buffer were mixed, and placed overnight in a vertical shaker at 4° C. Subsequently, Glutathione. Sepharose 4B condensate beads were added, and rotation proceeded at room temperature for 1 hour. The mixture was washed with WB and IP lysis buffers for 6 times, each of which the mixture was centrifugated in a centrifugal machine at 2,000 rmp at 4° C. for 5 min. The product was diluted by an SDS sample-loading buffer and stewed at 95° C. for 5 min, or a TLK2 protein was cleaved overnight by PreScission Protease at 4° C. The final result was obtained by Commassie staining.
The purified TLK2 protein was incubated with a cell lysis buffer (inducing calcium overload) treated with ionomycin or a normal cell lysis buffer. […] Similar change also appeared after the TLK2 protein was incubated with a TLK2 KO cell lysis buffer treated with the ionomycin.
TLK2 cDNA was cloned to a PGEX-6P-1 vector containing a GST tag, a recombinant plasmid was expressed into BL21 chemical competent cells for induced expression at 180 rpm at 20° C. for 20 hours under an induction condition of 0.5 mM IPTG. GST-TLK2 was purified according to the standard steps of Beyotime GST tag protein purification kit. […]
Phos-tag was a functional molecule which could be in specific binding with phosphate ions. […] The content of the phosphorylated protein could be analyzed by the change in the migration rate. […]

TLK2 [3] = assay: In-vitro kinase experiment (ATP consumption, MBP substrate); assay type: biochemical; conditions: TLK2+Ionomycin group compared with normal treatment group
Description: 1 μL of ATP (0.2 mM), 1 μg of a TLK2 purified protein and 20 μg of a substrate were added to a 50 μL reaction system, the remaining volume was supplemented with a kinase buffer (10 mM Tris pH 7.5, 50 mM KCL, 10 mM MgCl2 and 1 mM DTT), and a reaction was performed at room temperature for 15 min. An MBP protein was taken as a positive control substrate, and a PGK1 protein was taken as a negative control substrate. 50 ul of a Kinase-Lumi™ superstrong chemiluminescence kinase assay reagent was added and uniformly mixed to have a reaction in the dark at room temperature for 10 min. Then, a multifunctional microplate reader was used for chemiluminescence testing.
TLK2 kinase activity was verified by an in-vitro kinase experiment. In the in-vitro kinase experiment, a myelin basic protein (MBP) could be used as a substrate for multiple kinases, a group to which a TLK2 (No TLK2) protein was not added was taken as a control, and in a normal treatment (TLK2+Control) and an ionomycin treatment group (TLK2+Ionomycin), the same amount of the TLK2 protein reacted with the same amount of the MBP protein. A reduced ATP level reflected the TLK2 kinase activity.

[4] = wild-type Hela cells, Rapa 40 nM or Baf A1 100 nM
[5] = lysis buffer of Hela cells treated with 17 μM ionomycin for 3 hours

| SMILES | LC3-II/LC3-I ratio (Hela cells; [4]) | P62 protein level (Hela cells; [4]) | calcium-overload injury inhibition activity [1] | further results |
| --- | --- | --- | --- | --- |
| CO/C1=C\C(C)=C\[C@@H](C)[C@@H](O)[C@@H](C)C/C(C)=C/C=C/[C@H](OC)[C@@H]([C@@H](C)[C@@H](O)[C@H](C)[C@@]2(O)C[C@@H](O)[C@H](C)[C@@H](C(C)C)O2)OC1=O [Baf A1, bafilomycin A1] | elevated | elevated |  | autophagy activated by TLK2 KO (Hela cells; TLK2 KO Hela cells, Baf A1 100 nM): blocked |
| O=C(O[C@@H]1Cc2c(O)cc(O)cc2O[C@@H]1c1cc(O)c(O)c(O)c1)c1cc(O)c(O)c(O)c1 [Epigallocatechin Gallate] |  |  | had calcium-overload injury inhibition activity |  |
| CO[C@H]1C[C@@H]2CC[C@@H](C)[C@@](O)(O2)C(=O)C(=O)N2CCCC[C@H]2C(=O)O[C@H]([C@H](C)C[C@@H]2CC[C@@H](O)[C@H](OC)C2)CC(=O)[C@H](C)/C=C(\C)[C@@H](O)[C@@H](OC)C(=O)[C@H](C)C[C@H](C)/C=C/C=C/C=C/1C [Rapa, Raparnycin] | increased | reduced |  | P62 protein level (Hela cells; TLK2 KO Hela cells, Rapa 40 nM): further reduce |
| CC[C@@H]1C(=O)N(C)c2cnc(Nc3ccc(C(=O)N[C@H]4CC[C@H](N5CCN(CC6CC6)CC5)CC4)cc3OC)nc2N1C(C)C [Volasertib] |  |  | had calcium-overload injury inhibition activity |  |
| O=c1[nH]c(C2CCCN2)nc2c1oc1ccc(Cl)cc12 (stereo not shown) [XL413] |  |  | had calcium-overload injury inhibition activity |  |
| C[C@H](CCC(=O)O)C[C@H](C)C[C@H](C)C(=O)/C=C(\O)[C@H](C)C[C@H](C)C/C=C/[C@@H](C)[C@@H](O)[C@@H](C)[C@@H](O)C[C@@H]1CC[C@@](C)([C@H]2CC[C@@](C)([C@@H](C)O)O2)O1 [ionomycin, Ionomycin] |  |  |  | GST-TLK2 protein band (Commassie staining) (TLK2 [2]; [5]): moved upward; additional TLK2 phosphorylation sites compared with the control group (mass spectrometry) (TLK2 [2]; [5]): 15; TLK2 phosphorylation (phos-tag SDS-PAGE) (TLK2 [2]; normal and TLK2 KO cell lysis buffer after 17 μM ionomycin, 3 hours): could promote TLK2 phosphorylation; TLK2 kinase activity (ATP consumption) (TLK2 [3]): could consume much ATP |

Reference: patent publication US20230314435A1, “MARKER OF CALCIUM-OVERLOAD-MEDIATED NEURONAL DEATH AND APPLICATION THEREOF” (Capital Medical University, priority 2022, published 2023)
